≈ marks a conversion by molar mass, not a printed value. Calls of active or inactive are those of the source. The rule behind the calls is not given here.
Experiments:
Escherichia coli = assay: Antimicrobial activity against Escherichia coli; format: functional
Simplexvirus = assay: Antiviral activity against HSV up to 200 ug/mL by extracellular virucidal assay; format: functional, organism-based
Enterobacter cloacae = assay: Antimicrobial activity against Enterobacter cloacae; format: functional
[1] = tested on: Mycolicibacterium fortuitum; assay: Antimicrobial activity against Mycobacterium fortuitum; format: functional
[2] = Selectivity index, ratio of CC50 for human MT4 cells to IC50 for HIV infected in human MT4 cells; format: functional
[3] = Antioxidant activity assessed as superoxide radical anion scavenging activity; format: functional
[4] = Modulation of alternative complement pathway system assessed as hemoglobin release by spectrophotometry
Candida albicans = assay: Antimicrobial activity against Candida albicans; format: functional
Staphylococcus aureus = assay: Antimicrobial activity against Staphylococcus aureus; format: functional
Pseudomonas aeruginosa = assay: Antimicrobial activity against Pseudomonas aeruginosa; format: functional
[5] = tested on: Human immunodeficiency virus; assay: Antiviral activity against HIV infected in human MT4 cells assessed as inhibition of virus-induced cytopathic effect by MTT assay; format: functional, organism-based; settings: Human immunodeficiency virus 1, MT4
Salmonella paratyphi = assay: Antimicrobial activity against Salmonella paratyphi; format: functional, Salmonella enterica subsp. enterica serovar Paratyphi A; settings: Salmonella enterica
[6] = Modulation of classical complement pathway system assessed as hemoglobin release by spectrophotometry
[7] = Cytotoxicity against human MT4 cells by MTT assay; format: cell-based
Streptococcus pyogenes = assay: Antimicrobial activity against Streptococcus pyogenes; format: functional

Structure (SMILES) | MBC (Escherichia coli) | MIC (Escherichia coli) | MBC (Enterobacter cloacae) | MIC (Enterobacter cloacae) | MBC [1] | MIC [1] | Ratio CC50/IC50 [2] | IC50 [3] | Activity [4] | MBC (Candida albicans) | MIC (Candida albicans) | MBC (Staphylococcus aureus) | MIC (Staphylococcus aureus) | MBC (Pseudomonas aeruginosa) | MIC (Pseudomonas aeruginosa) | IC50 [5] | MBC (Salmonella paratyphi) | MIC (Salmonella paratyphi) | IC50 [6] | CC50 [7] | further results
Oc1cc(O)c2c(c1)O[C@H](c1ccc(O)c(O)c1)[C@@H](O)[C@@H]2c1c(O)cc(O)c2c1O[C@H](c1ccc(O)c(O)c1)[C@H](O)C2 | > 100 µg/mL | > 100 µg/mL | > 100 µg/mL | > 100 µg/mL | > 100 µg/mL | > 100 µg/mL | <1 | 30 µM | inactive | > 100 µg/mL | > 100 µg/mL | > 100 µg/mL | > 100 µg/mL | > 100 µg/mL | > 100 µg/mL | > 0.3 µg/mL | > 100 µg/mL | > 100 µg/mL | 45.5 µM | 0.3 µg/mL (≈ 0.519 µM) | Activity (Simplexvirus): inactive; MBC (Streptococcus pyogenes): 50 µg/mL (≈ 86.4 µM); MIC (Streptococcus pyogenes): 25 µg/mL (≈ 43.2 µM)
Oc1cc(O)c2c(c1)O[C@H](c1ccc(O)c(O)c1)[C@@H](O)[C@@H]2c1c(O)cc2c(c1O)C[C@@H](O)[C@@H](c1ccc(O)c(O)c1)O2 | > 100 µg/mL | > 100 µg/mL | > 100 µg/mL | > 100 µg/mL | > 100 µg/mL | > 100 µg/mL | 8 | 32.9 µM | – | > 100 µg/mL | > 100 µg/mL | > 100 µg/mL | > 100 µg/mL | > 100 µg/mL | > 100 µg/mL | 19.6 µg/mL (≈ 33.9 µM) | > 100 µg/mL | > 100 µg/mL | 19.7 µM | 127 µg/mL (≈ 219 µM) | Activity (Simplexvirus): inactive; IC50 [4]: 83.7 µM
Oc1cc(O)c2c(c1)O[C@H](c1cc(O)c(Oc3cc(O)c4c(c3)O[C@H](c3cc(O)c(O)c(O)c3)[C@H](O)C4)c(O)c1)[C@@H](O)C2 | > 100 µg/mL | > 100 µg/mL | > 100 µg/mL | > 100 µg/mL | > 100 µg/mL | > 100 µg/mL | – | 2 µM | – | > 100 µg/mL | > 100 µg/mL | > 100 µg/mL | > 100 µg/mL | > 100 µg/mL | > 100 µg/mL | – | > 100 µg/mL | > 100 µg/mL | 14.6 µM | – | IC50 [4]: 86 µM
Oc1cc(O)c2c(c1)O[C@H](c1ccc(O)c(O)c1)[C@@H](O)[C@@H]2c1c(O)cc(O)c2c1O[C@H](c1ccc(O)c(O)c1)[C@@H](O)C2 | > 100 µg/mL | > 100 µg/mL | > 100 µg/mL | > 100 µg/mL | > 100 µg/mL | > 100 µg/mL | 5 | 41.3 µM | inactive | > 100 µg/mL | > 100 µg/mL | > 100 µg/mL | > 100 µg/mL | > 100 µg/mL | > 100 µg/mL | 27 µg/mL (≈ 46.7 µM) | > 100 µg/mL | > 100 µg/mL | 37.7 µM | 118 µg/mL (≈ 204 µM) | Activity (Simplexvirus): inactive
Oc1cc(O)c2c(c1)O[C@H](c1ccc(O)c(O)c1)[C@@H](O)[C@@H]2c1c(O)cc2c(c1O)C[C@H](O)[C@@H](c1ccc(O)c(O)c1)O2 | > 100 µg/mL | > 100 µg/mL | > 100 µg/mL | > 100 µg/mL | > 100 µg/mL | > 100 µg/mL | 5 | 27.3 µM | inactive | > 100 µg/mL | > 100 µg/mL | > 100 µg/mL | > 100 µg/mL | > 100 µg/mL | > 100 µg/mL | 29.9 µg/mL (≈ 51.7 µM) | > 100 µg/mL | > 100 µg/mL | 18.5 µM | 141 µg/mL (≈ 244 µM) | Activity (Simplexvirus): inactive; MBC (Streptococcus pyogenes): 100 µg/mL (≈ 173 µM); MIC (Streptococcus pyogenes): 100 µg/mL (≈ 173 µM)
Oc1cc(O)c2c(c1)O[C@H](c1ccc(O)c(O)c1)[C@H](O)[C@H]2c1c(O)cc2c(c1O)C[C@@H](O)[C@@H](c1ccc(O)c(O)c1)O2 | > 100 µg/mL | > 100 µg/mL | > 100 µg/mL | > 100 µg/mL | > 100 µg/mL | > 100 µg/mL | 9 | 11.4 µM | inactive | > 100 µg/mL | > 100 µg/mL | > 100 µg/mL | > 100 µg/mL | > 100 µg/mL | > 100 µg/mL | 8.3 µg/mL (≈ 14.3 µM) | > 100 µg/mL | > 100 µg/mL | 51.7 µM | 53.5 µg/mL (≈ 92.5 µM) | Activity (Simplexvirus): inactive; MBC (Streptococcus pyogenes): 100 µg/mL (≈ 173 µM); MIC (Streptococcus pyogenes): 100 µg/mL (≈ 173 µM)
O=C1c2c(O)cc(O)cc2O[C@H](c2ccc(O)c(O)c2)[C@H]1O [(+)-TAXIFOLIN] | > 100 µg/mL | > 100 µg/mL | > 100 µg/mL | > 100 µg/mL | > 100 µg/mL | > 100 µg/mL | <1 | 24.2 µM | inactive | > 100 µg/mL | > 100 µg/mL | > 100 µg/mL | > 100 µg/mL | > 100 µg/mL | > 100 µg/mL | > 25.4 µg/mL | > 100 µg/mL | > 100 µg/mL | 850 µM | 25.4 µg/mL (≈ 83.5 µM) | Activity (Simplexvirus): inactive
Oc1cc(O)c2c(c1)O[C@H](c1ccc(O)c(O)c1)[C@H](O)C2 [(-)-EPICATECHIN] | > 100 µg/mL | > 100 µg/mL | > 100 µg/mL | > 100 µg/mL | > 100 µg/mL | > 100 µg/mL | 4 | 18.3 µM | inactive | > 100 µg/mL | > 100 µg/mL | > 100 µg/mL | > 100 µg/mL | > 100 µg/mL | > 100 µg/mL | 34.1 µg/mL (≈ 117 µM) | > 100 µg/mL | > 100 µg/mL | 656 µM | 136 µg/mL (≈ 469 µM) | –
Oc1cc(O)c2c(c1)O[C@H](c1ccc(O)c(O)c1)[C@@H](O)C2 [CIANIDANOL] | > 100 µg/mL | > 100 µg/mL | > 100 µg/mL | > 100 µg/mL | > 100 µg/mL | > 100 µg/mL | <1 | 13.1 µM | inactive | > 100 µg/mL | > 100 µg/mL | > 100 µg/mL | > 100 µg/mL | > 100 µg/mL | > 100 µg/mL | > 86.8 µg/mL | > 100 µg/mL | > 100 µg/mL | 647 µM | 86.8 µg/mL (≈ 299 µM) | –
Oc1cc(O)c2c(c1)O[C@H](c1ccc(O)c(O)c1)[C@H](O)[C@H]2c1c(O)cc(O)c2c1O[C@H](c1ccc(O)c(O)c1)[C@@H](O)C2 [PROCYANIDIN B1] | > 100 µg/mL | > 100 µg/mL | > 100 µg/mL | > 100 µg/mL | > 100 µg/mL | > 100 µg/mL | – | – | – | > 100 µg/mL | > 100 µg/mL | > 100 µg/mL | > 100 µg/mL | > 100 µg/mL | > 100 µg/mL | – | > 100 µg/mL | > 100 µg/mL | 31.3 µM | – | IC50 [4]: 72 µM
O=C(/C=C/c1ccc(O)c(O)c1)O[C@H](Cc1ccc(O)c(O)c1)C(=O)O [ROSMARINIC ACID] | – | – | – | – | – | – | – | – | – | – | – | – | – | – | – | – | – | – | 21.9 µM | – | IC50 [4]: 408 µM
Cc1cn([C@H]2C[C@H](N=[N+]=[N-])[C@@H](CO)O2)c(=O)[nH]c1=O [ZIDOVUDINE] | – | – | – | – | – | – | – | – | – | – | – | – | – | – | – | 0.0002 µg/mL (≈ 0.000748 µM) | – | – | – | 2.58 µg/mL (≈ 9.66 µM) | –
